Data as given in ChEMBL document CHEMBL1123699, “Selective cytotoxicity of a system L specific amino acid nitrogen mustard” (J Med Chem, 1987).

How the values were obtained:
L1210 [1] = experiment: Lethal dose was determined for […] activity against murine leukemia cells (L1210); assay type: toxicity, cell-based; details: mouse
L1210 [2] = experiment: Inhibitory activity against murine leukemia cells (L1210) was determined; assay type: functional, cell-based, Mus musculus
[3] = Therapeutic index is the ratio of LD90 of CFU-C to LD90 of L1210 cell lines; assay type: cell-based; details: mouse, CFU-C and L1210 cells
CFU-C = experiment: Lethal dose was determined for […] activity against […]; assay type: toxicity, cell-based; details: mouse
[4] = rat
L1210 [5] = experiment: Inhibitory activity against leucine-preferring transport system (system L) was determined in murine leukemia L1210 cell lines; assay type: functional, cell-based, Mus musculus

SMILES | LD90 (L1210 [1]) | Ki (L1210 [2]) | selectivity ratio [3] | LD90 (CFU-C) | half-life [4] | Ki (L1210 [5])
NC1(C(=O)O)CCc2ccc(N(CCCl)CCCl)cc2C1 (stereo not given) | 23.8 µM | 0.22 µM | 0.9 | 26.5 µM | 40 min | –
NC1(C(=O)O)CCc2c(cccc2N(CCCl)CCCl)C1 (stereo not given) | – | – | – | – | – | 15.2 µM
NC1(C(=O)O)CCc2ccccc2C1 (stereo not given) | – | – | – | – | – | 5 µM
N[C@@H](Cc1ccc(N(CCCl)CCCl)cc1)C(=O)O [MELPHALAN] | 35 µM | 112 µM | – | 14 µM | – | –
